In PubChem BioAssay (NCI):
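Values below derive from 48-hour exposures of cells grown in 96-well plates, with endpoints linearly interpolated between the two concentrations bracketing the appropriate inhibition level. The concentration for 50% growth inhibition is given as GI50. TGI is the concentration that stops growth completely.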

Experiments:
Assay in all cases: NCI anticancer screen, dose series, 48 h
A498 renal = system: A498 renal
KM12 colon = system: KM12 colon
MDA-MB-231 breast = system: MDA-MB-231 breast
MDA-MB-435 = system: MDA-MB-435
MDA-N = system: MDA-N
RPMI-8226 leukemia = system: RPMI-8226 leukemia
SF-539 CNS = system: SF-539 CNS
SNB-75 CNS = system: SNB-75 CNS
SR leukemia = system: SR leukemia
NCI-H522 lung = system: NCI-H522 lung

C=C(C)C1(Sc2ccc(OC)cc2)CC1
TGI (A498 renal): > 100 µM
TGI (KM12 colon): > 100 µM
TGI (MDA-MB-231 breast): > 100 µM
TGI (MDA-MB-435): 44 µM
TGI (MDA-N): > 100 µM
TGI (RPMI-8226 leukemia): > 100 µM
TGI (SF-539 CNS): > 100 µM
TGI (SNB-75 CNS): 78.5 µM
TGI (SR leukemia): 37.4 µM

Cc1ccc(C)n1-c1ccccc1C1C=Cn2c(=O)oc3c(OC(C)C)c(OC(C)C)c(O)c1c32 (configuration not stated)
TGI (A498 renal): > 100 µM
TGI (KM12 colon): > 100 µM
TGI (MDA-MB-231 breast): 78.8 µM
TGI (MDA-MB-435): 38.6 µM
TGI (NCI-H522 lung): 75.5 µM
TGI (RPMI-8226 leukemia): > 100 µM
TGI (SF-539 CNS): > 100 µM
TGI (SNB-75 CNS): > 100 µM

COc1cc2nc(-c3cccs3)nc(Nc3ccccc3C(=O)NN)c2cc1OC
TGI (A498 renal): > 100 µM
TGI (KM12 colon): > 100 µM
TGI (MDA-MB-231 breast): > 100 µM
TGI (MDA-MB-435): > 100 µM
TGI (NCI-H522 lung): > 100 µM
TGI (RPMI-8226 leukemia): > 100 µM
TGI (SF-539 CNS): > 100 µM
TGI (SNB-75 CNS): > 100 µM
TGI (SR leukemia): > 100 µM

O=S(=O)(O)c1cc(S(=O)(=O)O)c2cc(N=Nc3ccc(N=Nc4ccc(/C=C/c5ccc(N=[N+]([O-])c6ccc(/C=C/c7ccc(N=Nc8ccc(N=Nc9ccc%10cc(S(=O)(=O)O)cc(S(=O)(=O)O)c%10c9)cc8)cc7S(=O)(=O)O)c(S(=O)(=O)O)c6)cc5S(=O)(=O)O)c(S(=O)(=O)O)c4)cc3)ccc2c1
TGI (A498 renal): > 100 µM
TGI (KM12 colon): > 100 µM
TGI (NCI-H522 lung): > 100 µM
TGI (RPMI-8226 leukemia): > 100 µM
TGI (SF-539 CNS): > 100 µM
TGI (SNB-75 CNS): > 100 µM

CSc1ccc(N2C(=O)C3c4[nH]c5ccccc5c4C4CCC(C(C)(C)C)CC4C3C2=O)cc1 (configuration not stated)
TGI (A498 renal): 33.7 µM
TGI (KM12 colon): > 100 µM
TGI (NCI-H522 lung): 40.4 µM
TGI (RPMI-8226 leukemia): > 100 µM
TGI (SF-539 CNS): 43.1 µM
TGI (SNB-75 CNS): 39.2 µM
TGI (SR leukemia): 23.2 µM

OCc1ccc2c(c1)CC1(Cc3ccccc3C1)C2
TGI (A498 renal): > 100 µM
TGI (KM12 colon): 57.3 µM
TGI (MDA-MB-231 breast): 27.4 µM
TGI (MDA-N): 20 µM
TGI (NCI-H522 lung): 72.1 µM
TGI (RPMI-8226 leukemia): 46.4 µM
TGI (SF-539 CNS): 44.3 µM
TGI (SNB-75 CNS): 30.2 µM
TGI (SR leukemia): > 100 µM

CCOC(=O)c1ccc2nc3n(c2c1)C(c1c(F)cccc1F)SC3 (configuration not stated)
TGI (A498 renal): > 100 µM
TGI (KM12 colon): > 100 µM
TGI (MDA-MB-231 breast): > 100 µM
TGI (MDA-MB-435): > 100 µM
TGI (MDA-N): > 100 µM
TGI (RPMI-8226 leukemia): > 100 µM
TGI (SF-539 CNS): > 100 µM
TGI (SNB-75 CNS): > 100 µM
TGI (SR leukemia): > 100 µM

Clc1ccc(C2SCc3nc4ccccc4n32)cc1 (configuration not stated)
TGI (A498 renal): 55.5 µM
TGI (NCI-H522 lung): 44.4 µM
TGI (RPMI-8226 leukemia): 44.1 µM
TGI (SF-539 CNS): 76.8 µM
TGI (SNB-75 CNS): 24.9 µM

CC1(C)CCC2=C(O1)c1ccccc1C(=Nc1ccc([N+](=O)[O-])cc1)C2=O
TGI (A498 renal): 33.6 µM
TGI (KM12 colon): 28.2 µM
TGI (MDA-MB-231 breast): 43.2 µM
GI50 (MDA-MB-435): 15.8 µM
TGI (MDA-MB-435): 29.2 µM
TGI (MDA-N): 28.1 µM
TGI (NCI-H522 lung): 30.1 µM
TGI (SNB-75 CNS): 38.4 µM
TGI (SR leukemia): 37.7 µM

CCSC12OC3(CCCCCN3C1=O)C1C(=O)N(c3ccccc3)C(=O)C12 (configuration not stated)
TGI (A498 renal): > 100 µM
TGI (KM12 colon): > 100 µM
TGI (MDA-MB-231 breast): > 100 µM
TGI (MDA-MB-435): > 100 µM
TGI (MDA-N): > 100 µM
TGI (NCI-H522 lung): > 100 µM
TGI (SF-539 CNS): > 100 µM
TGI (SNB-75 CNS): > 100 µM
TGI (SR leukemia): > 100 µM

COc1ccc(NC(=O)CSC(=O)c2ccccc2)c(SCCSSCCSc2cc(OC)ccc2NC(=O)CSC(=O)c2ccccc2)c1
TGI (A498 renal): > 100 µM
TGI (KM12 colon): > 100 µM
TGI (MDA-MB-435): > 100 µM
TGI (MDA-N): > 100 µM
TGI (NCI-H522 lung): > 100 µM
TGI (RPMI-8226 leukemia): > 100 µM
TGI (SF-539 CNS): > 100 µM
TGI (SNB-75 CNS): > 100 µM
TGI (SR leukemia): > 100 µM

O/N=C1\C/C(=N\O)c2c(Br)sc(Br)c21
TGI (A498 renal): > 100 µM
TGI (KM12 colon): > 100 µM
TGI (MDA-MB-231 breast): > 100 µM
TGI (MDA-MB-435): > 100 µM
TGI (MDA-N): > 100 µM
TGI (NCI-H522 lung): 32.6 µM
TGI (SF-539 CNS): > 100 µM
TGI (SNB-75 CNS): 51.3 µM
TGI (SR leukemia): > 100 µM

CC(=O)/C=C(/C)[O-].CC(=O)/C=C(/C)[O-].CC(=O)[CH-]C(C)=O.CC(=O)[CH-]C(C)=O.[Zr+4]
GI50 (A498 renal): > 100 µM
TGI (A498 renal): > 100 µM
GI50 (KM12 colon): > 100 µM
TGI (KM12 colon): > 100 µM
GI50 (NCI-H522 lung): > 100 µM
TGI (NCI-H522 lung): > 100 µM
GI50 (SF-539 CNS): > 100 µM
TGI (SF-539 CNS): > 100 µM
GI50 (SNB-75 CNS): > 100 µM
TGI (SNB-75 CNS): > 100 µM
GI50 (SR leukemia): > 100 µM
TGI (SR leukemia): > 100 µM

NC1(c2cc3ccccc3s2)CCCCCC1
TGI (A498 renal): 35.2 µM
TGI (KM12 colon): 30.5 µM
TGI (MDA-MB-231 breast): 29.1 µM
TGI (MDA-MB-435): 29.7 µM
TGI (MDA-N): 30.4 µM
TGI (SF-539 CNS): 32.8 µM
TGI (SNB-75 CNS): 23.2 µM
TGI (SR leukemia): 36.6 µM

COc1cc(C(c2ccccc2)N2C(=O)CC[C@H]2C(=O)O)cc(OC)c1OC (some centres not stated)
TGI (A498 renal): > 100 µM
TGI (KM12 colon): > 100 µM
TGI (MDA-MB-435): > 100 µM
TGI (MDA-N): > 100 µM
TGI (NCI-H522 lung): > 100 µM
TGI (RPMI-8226 leukemia): > 100 µM
TGI (SF-539 CNS): > 100 µM
TGI (SNB-75 CNS): > 100 µM
TGI (SR leukemia): > 100 µM

N=C(N)SCc1nc(-c2ccc(Cl)cc2)no1
TGI (A498 renal): 32.3 µM
TGI (KM12 colon): > 100 µM
TGI (MDA-MB-231 breast): 35.9 µM
TGI (MDA-MB-435): 28.4 µM
TGI (NCI-H522 lung): 25.1 µM
TGI (RPMI-8226 leukemia): 26.8 µM
TGI (SF-539 CNS): 41.4 µM
TGI (SNB-75 CNS): 59.4 µM
TGI (SR leukemia): 21.9 µM

Cc1cc(C)[n+]2c(c1)C=CC2
TGI (KM12 colon): > 100 µM
TGI (NCI-H522 lung): 49.5 µM
TGI (SF-539 CNS): 79.4 µM
TGI (SNB-75 CNS): 41.9 µM

CC(=O)NC1C(OCc2ccccc2)OC(CO)C(O)C1OC(C)C(=O)NC(C(=O)NC(CCC(=O)NCCCNc1ccc([N+](=O)[O-])c2[nH]c3ccccc3c(=O)c12)C(N)=O)C(C)C (configuration not stated)
TGI (A498 renal): > 100 µM
TGI (KM12 colon): > 100 µM
TGI (MDA-MB-231 breast): > 100 µM
TGI (MDA-MB-435): > 100 µM
TGI (MDA-N): > 100 µM
TGI (NCI-H522 lung): > 100 µM
TGI (SF-539 CNS): > 100 µM
TGI (SNB-75 CNS): > 100 µM

O=S(=O)(O)c1ccc(O)c(N=Nc2c(O)ccc3ccccc23)c1
TGI (A498 renal): > 100 µM
TGI (KM12 colon): > 100 µM
TGI (MDA-MB-231 breast): > 100 µM
TGI (MDA-MB-435): > 100 µM
TGI (MDA-N): > 100 µM
TGI (NCI-H522 lung): > 100 µM
TGI (RPMI-8226 leukemia): > 100 µM
TGI (SNB-75 CNS): > 100 µM

CCOc1ccc2c(c1)C(/C(C(Cl)=C(Cl)Cl)=[N+](/[O-])OC(=O)c1ccccc1)=N2
TGI (A498 renal): > 100 µM
TGI (KM12 colon): > 100 µM
TGI (MDA-MB-231 breast): > 100 µM
TGI (MDA-MB-435): > 100 µM
TGI (MDA-N): > 100 µM
TGI (NCI-H522 lung): > 100 µM
TGI (SF-539 CNS): > 100 µM
TGI (SNB-75 CNS): > 100 µM
TGI (SR leukemia): > 100 µM

CC(C)(C)OC(=O)N1C(=O)C2CCCC21 (configuration not stated)
TGI (A498 renal): > 100 µM
TGI (KM12 colon): > 100 µM
TGI (MDA-MB-231 breast): > 100 µM
TGI (MDA-MB-435): > 100 µM
TGI (RPMI-8226 leukemia): > 100 µM
TGI (SNB-75 CNS): > 100 µM
TGI (SR leukemia): > 100 µM

COP(=O)(CP(=O)(OC)OCCC(C)CCC=C(C)C)OC (configuration not stated)
TGI (A498 renal): > 100 µM
TGI (KM12 colon): > 100 µM
TGI (MDA-MB-231 breast): 44.7 µM
TGI (MDA-MB-435): > 100 µM
TGI (MDA-N): > 100 µM
TGI (NCI-H522 lung): > 100 µM
TGI (SF-539 CNS): > 100 µM
TGI (SNB-75 CNS): > 100 µM

CCCCCCc1ccc(CCCCCCCC(=O)O)o1
TGI (KM12 colon): > 100 µM
TGI (MDA-MB-435): > 100 µM
TGI (MDA-N): > 100 µM
TGI (RPMI-8226 leukemia): > 100 µM
TGI (SF-539 CNS): > 100 µM
TGI (SNB-75 CNS): > 100 µM
TGI (SR leukemia): > 100 µM
